This passage reports IC50 results from patent publication US20250171431A1, “HETEROCYCLIC INHIBITORS OF IGF-1R FOR TREATMENT OF DISEASE” (HORIZON THERAPEUTICS IRELAND DAC, priority 2023, published 2025).

Chain of IGF-1R (P08069 31-1367): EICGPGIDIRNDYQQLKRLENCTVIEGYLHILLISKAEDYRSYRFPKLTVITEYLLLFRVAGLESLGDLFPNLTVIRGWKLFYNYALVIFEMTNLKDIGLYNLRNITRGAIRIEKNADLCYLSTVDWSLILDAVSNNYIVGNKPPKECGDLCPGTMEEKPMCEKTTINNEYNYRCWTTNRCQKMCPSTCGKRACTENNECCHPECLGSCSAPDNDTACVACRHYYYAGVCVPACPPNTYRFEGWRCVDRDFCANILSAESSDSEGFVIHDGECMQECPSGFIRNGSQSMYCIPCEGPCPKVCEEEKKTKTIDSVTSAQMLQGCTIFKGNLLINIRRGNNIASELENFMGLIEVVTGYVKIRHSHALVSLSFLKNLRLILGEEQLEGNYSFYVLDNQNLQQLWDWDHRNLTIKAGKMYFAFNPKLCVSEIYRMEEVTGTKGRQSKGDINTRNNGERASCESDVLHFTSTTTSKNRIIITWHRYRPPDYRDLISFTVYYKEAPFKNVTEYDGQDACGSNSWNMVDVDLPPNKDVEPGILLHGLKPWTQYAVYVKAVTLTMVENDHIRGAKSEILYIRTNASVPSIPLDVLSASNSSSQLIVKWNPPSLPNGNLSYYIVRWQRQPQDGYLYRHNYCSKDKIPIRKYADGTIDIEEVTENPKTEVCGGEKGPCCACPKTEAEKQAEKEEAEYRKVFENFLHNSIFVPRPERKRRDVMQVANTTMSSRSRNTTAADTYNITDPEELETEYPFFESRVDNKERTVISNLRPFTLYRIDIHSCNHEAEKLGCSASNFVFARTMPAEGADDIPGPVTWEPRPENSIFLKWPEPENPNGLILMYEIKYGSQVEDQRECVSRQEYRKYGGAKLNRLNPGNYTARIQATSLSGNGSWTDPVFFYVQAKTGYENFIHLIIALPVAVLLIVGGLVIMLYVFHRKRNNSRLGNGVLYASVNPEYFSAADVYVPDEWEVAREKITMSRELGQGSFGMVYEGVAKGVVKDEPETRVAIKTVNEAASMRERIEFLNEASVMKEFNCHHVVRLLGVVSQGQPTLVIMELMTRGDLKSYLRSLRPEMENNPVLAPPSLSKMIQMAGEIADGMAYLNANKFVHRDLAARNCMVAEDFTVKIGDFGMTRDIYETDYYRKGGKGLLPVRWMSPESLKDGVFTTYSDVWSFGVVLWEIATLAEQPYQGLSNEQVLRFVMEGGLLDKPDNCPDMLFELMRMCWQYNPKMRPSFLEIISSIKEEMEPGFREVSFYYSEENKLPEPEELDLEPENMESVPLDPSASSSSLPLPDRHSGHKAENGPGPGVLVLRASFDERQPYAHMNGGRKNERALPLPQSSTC

The assay addresses IGF-1R (Homo sapiens (Human), UniProt P08069). Briefly: Example B-1: IGF-1R Assay (PC3 cells, IGF1 stimulation, AlphaLISA). The class given is cell-based. As to conditions: 200 ng/mL IGF1 stimulation, read-out: Biological Activity against IGF-1R IC50. The gist of the method:
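PC3 cells were serum-starved 2 h, treated with serially diluted compounds for 2 h, then stimulated with IGF1 (200 ng/mL final) for 30 min. Lysates were read by AlphaLISA; % inhibition was calculated relative to vehicle and EC80 controls, with IC50 values binned into ranges.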
Background: Alpha assays give light when donor and acceptor beads are brought close together.
As usually defined, the IC50 is the concentration that gives 50% inhibition. As for `COc1cc(Nc2nccc(Nc3cnc4cc(Cl)ccc4c3)n2)ccc1O[C@H]1C[C@H](N(C)C)C1` [Compound 324, 4-(7-chloro-3-quinolylamino)-2-{3-methoxy-4-[(1r,3r)-3-(dimethylamino)cyclobutoxy]phenylamino}pyrimidine], the IC50 is ≤ 0.5 µM.

Turning to “7-(2-{3-methoxy-4-[(1s,3s)-3- (dimethylamino)cyclobutoxy] phenylamino}-4- pyrimidinylamino)-2,2- dimethyl-2,4-dihydro-1-oxa- 4,5-diaza-3-naphthalenone [Compound 288]”, the half-maximal inhibitory concentration (IC50) was 0.5 to 2 µM.

In the case of `COc1cc(Nc2nccc(Nc3cnc4c(c3)OCC(C)(C)O4)n2)ccc1O[C@H]1C[C@@H](N(C)C)C1` [Compound 268, 4-(3,3-dimethyl-2,3-dihydro-1,4-dioxa-5-aza-7-naphthylamino)-2-{3-methoxy-4-[(1s,3s)-3-(dimethylamino)cyclobutoxy]phenylamino}pyrimidine], the IC50 was ≤ 0.5 µM.

In the case of `COc1cc(Nc2nccc(Nc3cnc4c(c3)OCC(C)(C)O4)n2)cnc1O[C@H]1C[C@@H](N(C)C)C1` [Compound 271, 4-(3,3-dimethyl-2,3-dihydro-1,4-dioxa-5-aza-7-naphthylamino)-2-{5-methoxy-6-[(1s,3s)-3-(dimethylamino)cyclobutoxy]-3-pyridylamino}pyrimidine], the IC50 is ≤ 0.5 µM.

Consider `COc1cc(Nc2nccc(Nc3cnc4c(Cl)cncc4c3)n2)ccc1O[C@H]1C[C@@H](N(C)C)C1` [Compound 84, 4-(8-chloro-1,6-diaza-3-naphthylamino)-2-{3-methoxy-4-[(1s,3s)-3-(dimethylamino)cyclobutoxy]phenylamino}pyrimidine], for which the half-maximal inhibitory concentration (IC50) was 0.5 to 2 µM.

For `CS(=O)(=O)c1ccc2ncc(Nc3ccnc(Nc4ccc(OCCCN5CCOCC5)cc4)n3)cc2c1` [Compound 411, 4-(6-mesyl-3-quinolylamino)-2-[p-(3-morpholinopropoxy)phenylamino]pyrimidine], the IC50 fell in the range of 2 to 10 µM.

As to `COc1cc(Nc2nccc(Nc3cnc4c(OC(F)(F)F)cccc4c3)n2)ccc1O[C@H]1C[C@H](N(C)C)C1` [Compound 7, 2-{3-methoxy-4-[(1r,3r)-3-(dimethylamino)cyclobutoxy]phenylamino}-4-(8-trifluoromethoxy-3-quinolylamino)pyrimidine], the IC50 was ≤ 0.5 µM.

With `CCc1ccc2cc(Nc3ccnc(Nc4ccc(OCCCN5CCCCC5)c(OC)c4)n3)cnc2c1` [Compound 72, 4-(7-ethyl-3-quinolylamino)-2-[3-methoxy-4-(3-piperidinopropoxy)phenylamino]pyrimidine], the IC50 was ≤ 0.5 µM.

In the case of `COc1cc(Nc2nccc(Nc3cnc4c(=O)n(C)ncc4c3)n2)ccc1O[C@H]1C[C@@H](N(C)C)C1` [Compound 304, 3-(2-{3-methoxy-4-[(1s,3s)-3-(dimethylamino)cyclobutoxy]phenylamino}-4-pyrimidinylamino)-7-methyl-1,6,7-triaza-8(7H)-naphthalenone], the IC50 is > 10 µM.

Regarding `Fc1ccc2cc(Nc3ccnc(Nc4ccc(OCCCN5CCOCC5)cc4)n3)cnc2c1F` [Compound 403, 4-(7,8-difluoro-3-quinolylamino)-2-[p-(3-morpholinopropoxy)phenylamino]pyrimidine], the IC50 is 2 to 10 µM.

As for `COc1cc(Nc2nccc(Nc3cnc4ccc(Cl)cc4c3)n2)cnc1N1CCN(CC#N)CC1` [Compound 479, (4-{5-[4-(6-chloro-3-quinolylamino)-2-pyrimidinylamino]-3-methoxy-2-pyridyl}-1-piperazinyl)acetonitrile], the IC50 was ≤ 0.5 µM.

Take `COc1cc(Nc2nccc(Nc3cnc4c(c3)CC(C)(C)CC4)n2)ccc1O[C@H]1C[C@H](N(C)C)C1` [Compound 339, 4-(6,6-dimethyl-5,6,7,8-tetrahydro-3-quinolylamino)-2-{3-methoxy-4-[(1r,3r)-3-(dimethylamino)cyclobutoxy]phenylamino}pyrimidine]: the IC50 is ≤ 0.5 µM.

On to `COc1cc(Nc2nccc(Nc3cc4ccccc4nc3C(=O)O)n2)ccc1O[C@H]1C[C@@H](N(C)C)C1` [Compound 296, 3-(2-{3-methoxy-4-[(1s,3s)-3-(dimethylamino)cyclobutoxy]phenylamino}-4-pyrimidinylamino)-2-quinolinecarboxylic acid], for which the IC50 was > 10 µM.

As to `CN(C)CC1Cc2ccc(Nc3nccc(Nc4cc5cccc(F)c5[nH]c4=O)n3)cc2O1` (stereo not shown) [Compound 243, 3-(2-{2-[(dimethylamino)methyl]-2,3-dihydro-1-benzofuran-6-ylamino}-4-pyrimidinylamino)-8-fluoro-1,2-dihydro-2-quinolinone], the IC50 was ≤ 0.5 µM.

As to `COc1cc(Nc2nccc(Nc3cnc4c(c3)CCCC43CCCC3)n2)ccc1OCCCN1CCCCC1` [Compound 370, 4-(6′,7′-dihydro-5′H-spiro[cyclopentane-1,8′-quinolin]-3′-ylamino)-2-[3-methoxy-4-(3-piperidinopropoxy)phenylamino] pyrimidine], the IC50 is ≤ 0.5 µM.

For the compound `COc1cc(Nc2nccc(Nc3cnc4cc(Cl)cnc4c3)n2)ccc1O[C@H]1C[C@@H](N(C)C)C1` [Compound 278, 4-(7-chloro-1,5-diaza-3-naphthylamino)-2-{3-methoxy-4-[(1s,3s)-3-(dimethylamino)cyclobutoxy]phenylamino}pyrimidine], the IC50 was ≤ 0.5 µM.

Turning to `COc1cc(Nc2nccc(Nc3cc4cccc(F)c4[nH]c3=O)n2)cnc1N1CCN(C)C(C(F)(F)F)C1` (stereo not shown) [Compound 174, 8-fluoro-3-((2-((5-methoxy-6-(4-methyl-3-(trifluoromethyl)piperazin-1-yl)pyridin-3-yl)amino)pyrimidin-4-yl)amino)quinolin-2(1H)-one], the IC50 lay in the range of 0.5 to 2 µM.

As to `COc1cc(Nc2nccc(Nc3cnc4ccccc4c3)c2F)ccc1O[C@H]1C[C@@H](N(C)C)C1` [Compound 264, 3-fluoro-2-{3-methoxy-4-[(1s,3s)-3-(dimethylamino)cyclobutoxy]phenylamino}-4-(3-quinolylamino)pyridine], the IC50 was > 10 µM.

Turning to `COc1cc(N2CCC(C)(O)CC2)ncc1Nc1nccc(Nc2cc3cccc(F)c3[nH]c2=O)n1` [Compound 230, 8-fluoro-3-{2-[6-(4-hydroxy-4-methyl-1-piperidyl)-4-methoxy-3-pyridylamino]-4-pyrimidinylamino}-1,2-dihydro-2-quinolinone], the IC50 was ≤ 0.5 µM.

`c1ccc2ncc(Nc3ccnc(Nc4ccc(OCCCN5CCOCC5)nc4)n3)cc2c1` [Compound 31, 2-[6-(3-morpholinopropoxy)-3-pyridylamino]-4-(3-quinolylamino)pyrimidine]: the IC50 is ≤ 0.5 µM.

For `COc1ccc2cc(Nc3ccnc(Nc4ccc(O[C@H]5C[C@H]6COC[C@@H](C5)N6C)cc4)n3)cnc2c1` [Compound 346, 2-(p-{(1R,5S,7r)-9-methyl-3-oxa-9-azabicyclo[3.3.1]non-7-yloxy}phenylamino)-4-(7-methoxy-3-quinolylamino)pyrimidine], the IC50 lay in the range of 0.5 to 2 µM.

As for `COc1cc(Nc2nccc(Nc3cnc4c(c3)CC(C)CC4)n2)ccc1OCCCN1CCCCC1` (stereo not shown) [Compound 62, 2-[3-methoxy-4-(3-piperidinopropoxy)phenylamino]-4-(6-methyl-5,6,7,8-tetrahydro-3-quinolylamino)pyrimidine], the IC50 was ≤ 0.5 µM.

As to `COc1cc(Nc2nccc(Nc3cnc4cc(Cl)cnc4c3)n2)cnc1O[C@H]1C[C@@H](N(C)C)C1` [Compound 279, 4-(7-chloro-1,5-diaza-3-naphthylamino)-2-{5-methoxy-6-[(1s,3s)-3-(dimethylamino)cyclobutoxy]-3-pyridylamino}pyrimidine], the IC50 was 0.5 to 2 µM.

Consider `COc1cc(Nc2nccc(Nc3cnc4cc(F)c(F)cc4c3)n2)cnc1N1CCNC(C(C)(C)O)C1` (stereo not shown) [Compound 52, 2-(4-{5-[4-(6,7-difluoro-3-quinolylamino)-2-pyrimidinylamino]-3-methoxy-2-pyridyl}-2-piperazinyl)-2-propanol], for which the IC50 is ≤ 0.5 µM.

As to `COc1cc(Nc2nccc(Nc3cc4cccc(F)c4[nH]c3=O)n2)cnc1N1CCC(O)(C(F)(F)F)CC1` [Compound 228, 8-fluoro-3-(2-{6-[4-hydroxy-4-(trifluoromethyl)-1-piperidyl]-5-methoxy-3-pyridylamino}-4-pyrimidinylamino)-1,2-dihydro-2-quinolinone], the IC50 was ≤ 0.5 µM.

Take `c1ccc2ncc(Nc3ccnc(Nc4ccc(O[C@H]5CC[C@@H](N6CCOCC6)CC5)cc4)n3)cc2c1` [Compound 39, 4-(3-quinolylamino)-2-{p-[(1s, 4s)-4-morpholinocyclohexyloxy]phenylamino}pyrimidine]: the IC50 is ≤ 0.5 µM.

Turning to `COc1cc(Nc2nccc(Nc3cnc4cc(F)c(F)cc4c3)n2)cnc1N1CCNC(C(F)(F)F)C1` (stereo not shown) [Compound 176, N4-(6,7-difluoroquinolin-3-yl)-N2-(5-methoxy-6-(3-(trifluoromethyl)piperazin-1-yl)pyridin-3-yl)pyrimidine-2,4-diamine], the 50% inhibitory concentration (IC50) is ≤ 0.5 µM.

On to `COc1nc(N2CCC(O)(C(F)(F)F)CC2)ccc1Nc1nccc(Nc2cc3cccc(F)c3[nH]c2=O)n1` [Compound 227, 8-fluoro-3-(2-{6-[4-hydroxy-4-(trifluoromethyl)-1-piperidyl]-2-methoxy-3-pyridylamino}-4-pyrimidinylamino)-1,2-dihydro-2-quinolinone], for which the IC50 was ≤ 0.5 µM.

`COc1cc(Nc2nccc(Nc3cnc4cc(F)cc(F)c4c3)n2)ccc1O[C@H]1C[C@@H](N(C)C)C1` [Compound 118, 4-(5,7-difluoro-3-quinolylamino)-2-{3-methoxy-4-[(1s,3s)-3-(dimethylamino)cyclobutoxy]phenylamino}pyrimidine]: the IC50 is ≤ 0.5 µM.

In the case of `COc1cc(Nc2nccc(Nc3cnc4cc(F)c(F)cc4c3)n2)cnc1N1CC2(COC2)C1` [Compound 50, 4-(6,7-difluoro-3-quinolylamino)-2-{5-methoxy-6-(2-oxa-6-aza-6-spiro[3.3]heptyl)-3-pyridylamino}pyrimidine], the IC50 is ≤ 0.5 µM.

For the compound `COc1cc(Nc2nccc(Nc3cnc4c(c3)OCCO4)n2)cnc1O[C@H]1C[C@@H](N(C)C)C1` [Compound 276, 4-(2,3-dihydro-1,4-dioxa-5-aza-7-naphthylamino)-2-{5-methoxy-6-[(1s,3s)-3-(dimethylamino)cyclobutoxy]-3-pyridylamino}pyrimidine], the IC50 was ≤ 0.5 µM.
